Data published in patent publication US9731013B2 (UNIVERSITY OF FLORIDA RESEARCH FOUNDATION, INC., priority 2008, dated 2017).

What was measured:
[1] = Radiofrequency (RF) heating of samples dissolved or suspended in water; type: physicochemical; details: RF 13.56 MHz, 500 W, 250 μL sample in water; for temperature rise (in words): up to five minutes
Protocol: FIG. 1 is a plot of the temperature rise of samples comprising functionalized fullerenes according to embodiments of the invention that are dissolved or suspended in water during irradiation with RF at 13.56 MHz and 500 W RF power over a period of five minutes.
FIG. 2 is a bar graph of the temperature rise of samples comprising functionalized fullerenes according to embodiments of the invention that are dissolved or suspended in water after irradiation with RF at 13.56 MHz and 500 W RF power for 30 seconds (left bars) and 60 seconds (right bars).
Heating of a volume of water by irradiation of fullerene comprising compounds was carried out using a radiofrequency (RF) heating system (Therm Med, LLC, Erie, Pa.) operating at 13.56 MHz and 500 W RF power. A volume of 250 μL of sample dissolved or suspended in water was pipetted into a cylindrical quartz cuvette for RF exposure. The cuvette was placed on a thin horizontal Teflon sample holder positioned at a depth of 7.6 cm from RF generator.

[2] = Water solubility observation of samples; type: physicochemical

temperature rise in 5 minutes ([1]; 5 minutes) [°C] | water solubility (in words) [2] | temperature rise (in words) [1] | Substance
10 | not water soluble |  | Gadofullerenes (Gd@C82) [GdF]
 |  | Temperature rise was observed | Polyhydroxy fullerenes [PBU]
 | not water soluble | did not show a temperature rise | Pristine C60 [FN, reference compound]
